Results: article PMC11083148, “Structure–Activity Relationship Studies on Highly Functionalized Pyrazole Hydrazones and Amides as Antiproliferative and Antioxidant Agents” (International Journal of Molecular Sciences, 2024)

How the values were obtained:
[1] = DPPH radical-scavenging activity; type: physicochemical; parameters: AA (%), percentage of antioxidant activity: concentration or dose not given beside the values; settings: mean ± SD, n = 2
Description: The antioxidant activity of the representative compounds of the two series (namely, acylhydrazones 10b, 11a, 11d, 12d, 13d, and amides 14, 22) was measured in vitro using the 2,2-diphenyl-1-picrylhydrazyl (DPPH) assay. The results were calculated as Trolox equivalent and expressed as a percentage of antioxidant activity (AA) (Table 3). […] Derivatives 10b and 12d were endowed with the highest antioxidant activity, thus highlighting the relevance of both pyrazole N1 and acylhydrazone substituents on compounds’ radical scavenging properties.
Compounds 10b, 11a, 11d, 12d, 13d, 14, and 22 (ca. 3 mg) were dissolved in DMSO (1 mL), and then 100 µL of this solution was mixed with 3.9 mL of DPPH methanol solution (65 µM). Absorbance was measured at 517 nm after reacting for 30 min in the dark. The linear calibration curve was obtained using Trolox standards (ranging between 20 and 200 mg/L, R^2 = 0.9955). The result was calculated as Trolox equivalent in mg/L, and the percentage of antioxidant activity (AA%) was calculated from the ratio of decreasing absorbance of sample solution (A0 − As) to absorbance of blank DPPH solution (A0), as expressed in Equation (1). (1) AA%=A0−As/A0×100
All analyses were carried out in duplicate (n = 2), and values are given as means ± standard deviation (SD).

MDA-MB-435 = experiment: NCI screening, Melanoma; type: cell-based; settings: MDA-MB-435, Melanoma; 10 µM; negative values indicate lethality
Description: (§1) In addition, 11a and 17 (representative compounds of the acylhydrazone and amide series) were selected by the National Cancer Institute (NCI, Germantown, MD, USA) and tested at a fixed concentration of 10 µM against a panel of fifty-nine different cancer cell lines, including highly metastatic tumors (Table 2).

M14 = experiment: NCI screening, Melanoma; type: cell-based; settings: 10 µM
Description: as §1

LOX IMVI = experiment: NCI screening, Melanoma; type: cell-based; settings: 10 µM
Description: as §1

NCI-H460 = experiment: NCI screening, Non-Small Cell Lung Cancer; type: cell-based; settings: 10 µM
Description: as §1

NCI-H522 = experiment: NCI screening, Non-Small Cell Lung Cancer; type: cell-based; settings: 10 µM
Description: as §1

MDA-MB-468 = experiment: NCI screening, Breast Cancer; type: cell-based; settings: MDA-MB-468, Breast Cancer; 10 µM; negative values indicate lethality
Description: as §1

SR = experiment: NCI screening, Leukemia; type: cell-based; settings: 10 µM
Description: as §1

K-562 = experiment: NCI screening, Leukemia; type: cell-based; settings: K-562, Leukemia; 10 µM
Description: as §1

HL-60(TB) = experiment: NCI screening, Leukemia; type: cell-based; settings: 10 µM
Description: as §1

Row | Structure (SMILES) | AA (%), percentage of antioxidant activity [1] [%] | DPPH (%) [1] [%] | Growth Percentage (%) (MDA-MB-435) | Growth Percentage (%) (M14) | Growth Percentage (%) (LOX IMVI) | Growth Percentage (%) (NCI-H460) | Growth Percentage (%) (NCI-H522) | Growth Percentage (%) (MDA-MB-468) | Growth Percentage (%) (SR) | Growth Percentage (%) (K-562) | Growth Percentage (%) (HL-60(TB))
1 | COc1ccc(/C=N/NC(=O)c2c(N)nn(C)c2Nc2ccccc2)cc1 [11a, (E)-3-amino-N′-(4-methoxybenzylidene)-1-methyl-5-(phenylamino)-1H-pyrazole-4-carbohydrazide] | 25.56 ± 2.44 | 74.44 ± 2.44 |  |  |  |  |  |  |  |  | 
2 | CCOC(=O)c1c(NC(=O)C2CC2)nn(C)c1Nc1ccccc1 [compound 17, Ethyl 3-(cyclopropanecarboxamido)-1-methyl-5-(phenylamino)-1H-pyrazole-4-carboxylate] |  |  | 101.76 | 102.31 | 102.01 | 101.02 | 97.23 | 102.11 | 94.23 | 96.41 | 96.44
